From US9839642B2, “Beta-tetrazolyl-propionic acids as metallo-beta-lactamase inhibitors” (priority 2014, dated 2017)

Key:
[1] = test system: Klebsiella pneumoniae expressing VIM-1 (IHMA599644); experiment: Antibiotic potentiation activity: synergistic concentration (MITC95) with imipenem, growth by OD600; assay type: cell-based; conditions: K. pneumoniae IHMA599644 (VIM-1), 95% inhibition of growth
Outline: (§1)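 Colonies from overnight agar plates (35 °C) were suspended in saline and diluted 1:100 into 1.1× CAMHB. Inhibitor (final 200 μM to 0.195 μM) was combined with imipenem at 1 or 4 μg/ml, incubated 22–24 h at 35 °C, and absorbance read; MITC95 is the lowest inhibitor concentration giving 95% growth inhibition.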

[2] = test system: Serratia marcescens expressing IMP-1 (CL5741); experiment: as above; assay type: cell-based; conditions: S. marcescens CL5741 (IMP-1), 95% inhibition of growth
Outline: as §1

[3] = test system: Escherichia coli expressing NDM-1 (CLB30016); experiment: as above; assay type: cell-based; conditions: E. coli CLB30016 (NDM-1), 95% inhibition of growth
Outline: as §1

VIM-1 = VIM-1 (Pseudomonas aeruginosa, UniProt A0A0F7KYQ8); experiment: Enzyme activity: determination of IC50, fluorescence assay with CCF2-FA substrate; assay type: biochemical; conditions: VIM-1 enzyme 30 pM, CCF2-FA 1.25 μM, 2 hours at 25° C.; read-out: VIM1 IC50
Outline: (§2)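 Final enzyme levels differed by target: 1 pM NDM-1, 2 pM IMP-1, 30 pM VIM-1. Each was incubated 2 hours at 25° C with test compound and 1.25 μM CCF2-FA, and 460 nm fluorescence (405 nm excitation) was fitted by 4-parameter curve to obtain IC50.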

IMP-1 = IMP-1 (Serratia marcescens, UniProt P52699); experiment: as above; assay type: biochemical; conditions: IMP-1 enzyme 2 pM, CCF2-FA 1.25 μM, 2 hours at 25° C.; read-out: IMP1 IC50
Outline: as §2

NDM-1 = NDM-1 (Klebsiella pneumoniae, UniProt C7C422); experiment: as above; assay type: biochemical; conditions: NDM-1 enzyme 1 pM, CCF2-FA 1.25 μM, 2 hours at 25° C.; read-out: NDM1 IC50
Outline: as §2

Chain of NDM-1 (C7C422 29-270, looked up, species assumed): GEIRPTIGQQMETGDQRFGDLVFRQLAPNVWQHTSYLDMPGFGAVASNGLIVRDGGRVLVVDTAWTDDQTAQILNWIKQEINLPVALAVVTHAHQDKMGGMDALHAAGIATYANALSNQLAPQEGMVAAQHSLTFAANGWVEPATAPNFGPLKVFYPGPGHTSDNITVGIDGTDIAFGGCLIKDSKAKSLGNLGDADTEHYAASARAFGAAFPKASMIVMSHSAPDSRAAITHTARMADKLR
Chain of IMP-1 (P52699 19-246, looked up, species assumed): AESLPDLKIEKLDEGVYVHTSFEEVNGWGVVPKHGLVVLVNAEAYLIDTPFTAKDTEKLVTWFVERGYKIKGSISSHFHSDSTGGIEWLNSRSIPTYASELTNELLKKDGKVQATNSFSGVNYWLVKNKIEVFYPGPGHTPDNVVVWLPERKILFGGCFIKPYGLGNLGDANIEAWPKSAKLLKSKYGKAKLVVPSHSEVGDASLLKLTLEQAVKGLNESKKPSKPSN

SMILES | VIM1 KP599644 MITC95 [1] [µM] | IMP1 SM5741 MITC95 [2] [µM] | NDM1 EC30016 MITC95 [3] [µM] | IC50 (VIM-1) [nM] | IC50 (IMP-1) [nM] | IC50 (NDM-1) [nM]
CCC[C@H](C(=O)O)[C@H](Cc1ccccc1-c1ccncc1)c1nn[nH]n1 [Example 397, (2S)-2-[(1S)-2-(2-pyridin-4-ylphenyl)-1-(2H-tetrazol-5-yl)ethyl]pentanoic acid] | 75 | 200 | 6.2 | 16 | 5000 | 13
CCC[C@H](C(=O)O)[C@H](Cc1ccccc1-c1ccc(N)nc1)c1nn[nH]n1 [Example 398, (2S)-2-[(1S)-2-[2-(6-aminopyridin-3-yl)phenyl]-1-(2H-tetrazol-5-yl)ethyl]pentanoic acid] | 25 | 75 | 3.1 | 10 | 1100 | 1.6
CCC[C@H](C(=O)O)[C@H](Cc1ccccc1-c1cccc(C(N)=O)c1)c1nn[nH]n1 [Example 399, (2S)-2-[(1S)-2-(3′-carbamoylbiphenyl-2-yl)-1-(2H-tetrazol-5-yl)ethyl]pentanoic acid] | 25 | 25 | 6.2 | 1.6 | 430 | 1.4
CC(C)C[C@H](C(=O)O)[C@H](Cc1ccc(Oc2cccc(CN)c2)nc1)c1nn[nH]n1 [Example 400, (2S)-2-[(1S)-2-{6-[3-(aminomethyl)phenoxy]pyridin-3-yl}-1-(2H-tetrazol-5-yl)ethyl]-4-methylpentanoic acid] | 50 | 25 | 12.5 | 42 | 750 | 340
CCC[C@H](C(=O)O)[C@H](Cc1ccccc1-c1ccc(S(N)(=O)=O)cc1)c1nn[nH]n1 [Example 401, (2S)-2-[(1S)-2-(4′-sulfamoylbiphenyl-2-yl)-1-(2H-tetrazol-5-yl)ethyl]pentanoic acid] | 50 | 50 | 9.4 | 13 | 1900 | 3.9
CCC[C@H](C(=O)O)[C@H](Cc1ccccc1-c1ccc(NS(C)(=O)=O)cc1)c1nn[nH]n1 [Example 402, (2S)-2-[(1S)-2-{4′-[(methylsulfonyl)amino]biphenyl-2-yl}-1-(2H-tetrazol-5-yl)ethyl]pentanoic acid] | 25 | 12.5 | 3.1 | 1.5 | 230 | 0.095
CCC[C@H](C(=O)O)[C@H](Cc1ccccc1-c1ccc(CO)cc1)c1nn[nH]n1 [Example 403, (2S)-2-[(1S)-2-[4′-(hydroxymethyl)biphen-yl-2-yl]-1-(2H-tetrazol-5-yl)ethyl]pentanoic acid] | 50 | 18.8 | 9.4 | 3.3 | 550 | 2.4
CC(C[C@H](C(=O)O)[C@H](Cc1ccc(N)nc1)c1nnn[nH]1)c1ccccc1 (stereo partly drawn) [Example 404, (2S)-2-((S)-2-(6-aminopyridin-3-yl)-1-(1H-tetrazol-5-yl)ethyl)-4-phenylpentanoic acid] | 75 | 75 | 18.75 | 21.9 | 622 | 228
CCC[C@H](C(=O)O)[C@H](CCc1ccc(N)nc1)c1nnn[nH]1 [Example 405, (2S,3S)-5-(6-aminopyridin-3-yl)-2-propyl-3-(1H-tetrazol-5-yl)pentanoic acid] | 12.5 | 200 | 12.5 | 39.6 | 14800 | 2830
CCC[C@H](C(=O)O)[C@H](CCCc1ccc(N)nc1)c1nnn[nH]1 [Example 406, (2S,3S)-6-(6-aminopyridin-3-yl)-2-propyl-3-(1H-tetrazol-5-yl)hexanoic acid] | 6.25 | 37.5 | 6.25 | 14.9 | 815 | 428
CC(C)C[C@H](C(=O)O)[C@H](Cc1cc(Cl)nc(NCCO)c1)c1nnn[nH]1 [Example 407] | 50 | 75 | 18.75 | 2.22 | 923 | 34.4
